Laboratory results as given in ChEMBL document CHEMBL1800012, “Optimisation of a novel series of selective CNS penetrant CB(2) agonists” (Bioorg Med Chem Lett, 2011).
Blank lines part the entries; values can stand above or below the molecule they belong to.

Columns and labels:
[1] = Intrinsic clearance in rat liver microsomes; type: ADME, Microsome
[2] = Intrinsic clearance in human liver microsomes; type: ADME, Microsome
Cannabinoid receptor 2 [3] = molecular target: T1, Cannabinoid receptor 2 (Homo sapiens, UniProt P34972); experiment: Agonist activity at human recombinant CB2 receptor expressed in CHO cells assessed as inhibition forskolin-induced cAMP release; type: functional, cell-based
T1 sequence (P34972 whole entry): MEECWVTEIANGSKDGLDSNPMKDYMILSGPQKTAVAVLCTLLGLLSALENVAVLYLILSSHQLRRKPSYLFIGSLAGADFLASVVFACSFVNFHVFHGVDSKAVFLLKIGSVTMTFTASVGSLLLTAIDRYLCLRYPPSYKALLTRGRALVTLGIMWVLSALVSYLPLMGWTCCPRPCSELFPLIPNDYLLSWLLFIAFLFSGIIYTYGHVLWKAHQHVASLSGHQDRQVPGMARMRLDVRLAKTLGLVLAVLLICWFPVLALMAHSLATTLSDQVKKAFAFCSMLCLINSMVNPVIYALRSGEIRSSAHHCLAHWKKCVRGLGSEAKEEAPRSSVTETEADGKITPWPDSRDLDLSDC

Cannabinoid receptor 1 [4] = molecular target: T2, Cannabinoid receptor 1 (Homo sapiens, UniProt P21554); experiment: Binding affinity at human CB1 receptor
T2 sequence (P21554 whole entry): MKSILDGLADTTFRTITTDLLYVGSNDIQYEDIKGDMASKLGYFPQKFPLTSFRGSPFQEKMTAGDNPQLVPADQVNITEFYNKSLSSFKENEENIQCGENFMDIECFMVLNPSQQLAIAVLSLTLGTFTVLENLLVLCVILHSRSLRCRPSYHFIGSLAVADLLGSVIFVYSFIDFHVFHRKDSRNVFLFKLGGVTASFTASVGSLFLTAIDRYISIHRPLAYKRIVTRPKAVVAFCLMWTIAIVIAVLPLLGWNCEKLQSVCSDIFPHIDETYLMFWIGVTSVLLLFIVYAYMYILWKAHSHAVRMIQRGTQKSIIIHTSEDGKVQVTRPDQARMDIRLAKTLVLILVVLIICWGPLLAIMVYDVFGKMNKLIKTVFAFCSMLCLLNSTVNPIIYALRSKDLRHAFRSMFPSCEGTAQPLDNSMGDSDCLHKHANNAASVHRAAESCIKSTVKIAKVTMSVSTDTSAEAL

Cannabinoid receptor 2 [5] = molecular target: T1, Cannabinoid receptor 2; experiment: Agonist activity at human recombinant CB2 receptor expressed in CHO cells assessed as inhibition forskolin-induced cAMP release relative to control; type: functional, cell-based
[6] = Oral bioavailability in rat; type: ADME, organism-based; details: in vivo
Cannabinoid receptor 1 [7] = molecular target: T2, Cannabinoid receptor 1; experiment: Agonist activity at human CB1 receptor by functional assay
Rattus norvegicus = organism: Rattus norvegicus; experiment: Ratio of unbound drug level in brain to plasma in rat relative to control; type: ADME, organism-based; details: in vivo
[8] = Volume of distribution in rat at 1 mg/kg, iv; type: ADME, organism-based; set-up: dose 1 mg/kg, route intravenous; details: in vivo
[9] = Clearance in rat at 1 mg/kg, iv; type: ADME, organism-based; set-up: dose 1 mg/kg, route intravenous; details: in vivo
[10] = Half life in rat at 1 mg/kg, iv; type: ADME, organism-based; set-up: dose 1 mg/kg, route intravenous; details: in vivo
[11] = Ratio of unbound drug level in brain to plasma in rat; type: ADME, organism-based; details: brain and plasma, read-out: BPR

SMILES: CCS(=O)(=O)c1ccc2c(c1)nc(C1CCCC1)n2CC1CC1
- microsomal CLint [1]: 106 µL/min/mg
- microsomal CLint [2]: 11 µL/min/mg
- EC50 (Cannabinoid receptor 2 [3]): 25 nM

SMILES: CCS(=O)(=O)c1ccc2c(c1)nc(C(C)(C)C)n2CCN(C)C
- microsomal CLint [1]: 8.5 µL/min/mg
- microsomal CLint [2]: 8 µL/min/mg
- EC50 (Cannabinoid receptor 2 [3]): 39 nM

SMILES: CCS(=O)(=O)c1ccc2c(c1)nc(C(C)C)n2CC1CC1
- EC50 (Cannabinoid receptor 2 [3]): 132 nM

SMILES: CC(C)S(=O)(=O)c1ccc2c(c1)nc(CC(C)(C)C)n2CC1CC1
- microsomal CLint [1]: 144 µL/min/mg
- microsomal CLint [2]: 23 µL/min/mg
- EC50 (Cannabinoid receptor 2 [3]): 3.2 nM
- Ki (Cannabinoid receptor 1 [4]): > 10000 nM

SMILES: CC(C)(C)Cc1nc2cc(S(=O)(=O)C(C)(C)C)ccc2n1CC1CC1
- microsomal CLint [2]: 38 µL/min/mg
- EC50 (Cannabinoid receptor 2 [3]): 0.43 nM

SMILES: CCS(=O)(=O)c1ccc2c(c1)nc(C(C)(C)C)n2C1CC1
- microsomal CLint [1]: 8.5 µL/min/mg
- microsomal CLint [2]: 8 µL/min/mg
- EC50 (Cannabinoid receptor 2 [3]): 106 nM

SMILES: CN(C)CCS(=O)(=O)c1ccc2c(c1)nc(CC(C)(C)C)n2CC1CC1
- microsomal CLint [1]: 170 µL/min/mg
- microsomal CLint [2]: 79 µL/min/mg
- EC50 (Cannabinoid receptor 2 [3]): 32 nM

SMILES: CCS(=O)(=O)c1ccc2c(c1)nc(CC1CC1)n2CC1CC1
- EC50 (Cannabinoid receptor 2 [3]): 425 nM
- Emax (Cannabinoid receptor 2 [5]): 79%

SMILES: CCCc1nc2cc(S(=O)(=O)CC)ccc2n1CC1CC1
- microsomal CLint [1]: 34 µL/min/mg
- microsomal CLint [2]: 43 µL/min/mg
- EC50 (Cannabinoid receptor 2 [3]): 199 nM

SMILES: CCS(=O)(=O)c1ccc2c(c1)nc(C1(C)CCCC1)n2CC1CC1
- microsomal CLint [1]: 106 µL/min/mg
- microsomal CLint [2]: 42 µL/min/mg
- EC50 (Cannabinoid receptor 2 [3]): 9.6 nM

- microsomal CLint [1]: 54 µL/min/mg
- microsomal CLint [2]: < 7 µL/min/mg
- EC50 (Cannabinoid receptor 2 [3]): 1.2 nM
SMILES: CC(C)(C)Cc1nc2cc(S(=O)(=O)C(C)(C)CO)ccc2n1CC1CC1

SMILES: CCS(=O)(=O)c1ccc2c(c1)nc(C(C)(C)C)n2CCOC(F)(F)F
- microsomal CLint [1]: 19 µL/min/mg
- microsomal CLint [2]: 7 µL/min/mg
- EC50 (Cannabinoid receptor 2 [3]): 5.3 nM

SMILES: CCS(=O)(=O)c1ccc2c(c1)nc(CCC(C)C)n2CC1CC1
- EC50 (Cannabinoid receptor 2 [3]): 67 nM
- Emax (Cannabinoid receptor 2 [5]): 58%

SMILES: CCS(=O)(=O)c1ccc2c(c1)nc(C1CCC1)n2CC1CC1
- microsomal CLint [1]: 33 µL/min/mg
- microsomal CLint [2]: 8 µL/min/mg
- EC50 (Cannabinoid receptor 2 [3]): 82 nM

SMILES: CCS(=O)(=O)c1ccc2c(c1)nc(C(C)(C)C)n2CC1CC1
- microsomal CLint [1]: 12 µL/min/mg
- microsomal CLint [2]: 9 µL/min/mg
- bioavailability [6]: 100%
- EC50 (Cannabinoid receptor 1 [7]): > 10 nM
- BPR (Rattus norvegicus): 30
- EC50 (Cannabinoid receptor 2 [3]): 2.7 nM
- Vd [8]: 3.2 L/kg
- clearance [9]: 20 mL/min/kg
- half-life [10]: 1.9 h
- Ki (Cannabinoid receptor 1 [4]): > 20000 nM

SMILES: CCS(=O)(=O)c1ccc2c(c1)nc(C(C)(C)C)n2C[C@@H]1CCCO1
- microsomal CLint [1]: 17 µL/min/mg
- microsomal CLint [2]: 12 µL/min/mg
- Kp uu [11]: 1
- EC50 (Cannabinoid receptor 2 [3]): 11 nM
- Vd [8]: 1 L/kg
- clearance [9]: 27.1 mL/min/kg
- half-life [10]: 0.4 h

SMILES: CN(C)CCn1c(CC(C)(C)C)nc2cc(S(=O)(=O)CC(C)(C)O)ccc21
- microsomal CLint [1]: < 11.2 µL/min/mg
- microsomal CLint [2]: < 7 µL/min/mg
- bioavailability [6]: 21%
- BPR (Rattus norvegicus): < 1%
- EC50 (Cannabinoid receptor 2 [3]): 12 nM
- Ki (Cannabinoid receptor 1 [4]): > 19400 nM

SMILES: CCS(=O)(=O)c1ccc2c(c1)nc(C1(C)CC1)n2CC1CC1
- microsomal CLint [1]: 11 µL/min/mg
- microsomal CLint [2]: 8 µL/min/mg
- EC50 (Cannabinoid receptor 2 [3]): 51 nM

SMILES: CC(C)(C)Cc1nc2cc(S(=O)(=O)CC(C)(C)O)ccc2n1CC1CC1
- microsomal CLint [1]: 244 µL/min/mg
- microsomal CLint [2]: < 7 µL/min/mg
- EC50 (Cannabinoid receptor 2 [3]): 3.1 nM

SMILES: CCS(=O)(=O)c1ccc2c(c1)nc(CC(C)(C)C)n2CC1CC1
- microsomal CLint [1]: 38 µL/min/mg
- microsomal CLint [2]: 8.4 µL/min/mg
- EC50 (Cannabinoid receptor 2 [3]): 2.9 nM

SMILES: CC(C)(C)Cc1nc2cc(S(=O)(=O)Cc3ccccc3)ccc2n1CC1CC1
- microsomal CLint [1]: 369 µL/min/mg
- microsomal CLint [2]: 276 µL/min/mg
- EC50 (Cannabinoid receptor 2 [3]): 6.5 nM
